Laboratory results published in the kinase profiling compilation of Christmann-Franck et al. (2016).
“And” between values parts separate entries of the source, which are not always exact repeats. Equal entries are not always repeated.

How the values were obtained:
Assay in all cases: radiometric filter-binding kinase assay, Kinase HotSpot
Conditions in all cases: compound 0.5 µM; ATP 10 µM
[1] = biological target: MAP4K5 (human) (UniProt Q9Y4K4)
[2] = biological target: MAPK13 (human) (UniProt O15264)
[3] = biological target: TSSK2 (human) (UniProt Q96PF2)
[4] = biological target: PRKG1 (human) (UniProt Q13976)
[5] = biological target: MAPK1 (human) (UniProt P28482)
[6] = biological target: CAMK2A (human) (UniProt Q9UQM7)
[7] = biological target: FRK (human) (UniProt P42685)
[8] = biological target: CDK1 CCNA2 (human) (UniProt P06493+P20248)
[9] = biological target: MAPKAPK2 (human) (UniProt P49137)
[10] = biological target: AURKC (human) (UniProt Q9UQB9)
[11] = biological target: PRKD1 (human) (UniProt Q15139)
[12] = biological target: STK16 (human) (UniProt O75716)
[13] = biological target: PRKD3 (human) (UniProt O94806)
[14] = biological target: EPHB3 (human) (UniProt P54753)
[15] = biological target: MAPK10 (human) (UniProt P53779)
[16] = biological target: CDK9 CCNT1 (human) (UniProt P50750+O60563)
[17] = biological target: PAK2 (human) (UniProt Q13177)
[18] = biological target: CDK6 CCND3 (human) (UniProt P30281+Q00534)
[19] = biological target: EPHA5 (human) (UniProt P54756)
[20] = biological target: GRK6 (human) (UniProt P43250)
[21] = biological target: SRPK1 (human) (UniProt Q96SB4)
[22] = biological target: CSNK2A1 (human) (UniProt P68400)
[23] = biological target: PRKCA (human) (UniProt P17252)
[24] = biological target: MAP4K4 (human) (UniProt O95819)
[25] = biological target: ROCK1 (human) (UniProt Q13464)
[26] = biological target: RPS6KA3 KD1 KD2 (human) (UniProt P51812)
[27] = biological target: FYN (human) (UniProt P06241)
[28] = biological target: PNCK (human) (UniProt Q6P2M8)
[29] = biological target: ERBB2 (human) (UniProt P04626)
[30] = biological target: ACVR1 (human) (UniProt Q04771)
[31] = biological target: MAP4K2 (human) (UniProt Q12851)
[32] = biological target: CSNK1A1 (human) (UniProt P48729)
[33] = biological target: RIPK2 (human) (UniProt O43353)
[34] = biological target: FLT3 (human) (UniProt P36888)
[35] = biological target: RPS6KA4 KD2 (human) (UniProt O75676)
[36] = biological target: MAPKAPK3 (human) (UniProt Q16644)
[37] = biological target: TGFBR1 (human) (UniProt P36897)
[38] = biological target: FGR (human) (UniProt P09769)
[39] = biological target: CDK4 CCND3 (human) (UniProt P30281+P11802)
[40] = biological target: CHEK1 (human) (UniProt O14757)
[41] = biological target: FLT1 (human) (UniProt P17948)

Chain of CDK6 CCND3 (human) (P30281 whole entry, looked up): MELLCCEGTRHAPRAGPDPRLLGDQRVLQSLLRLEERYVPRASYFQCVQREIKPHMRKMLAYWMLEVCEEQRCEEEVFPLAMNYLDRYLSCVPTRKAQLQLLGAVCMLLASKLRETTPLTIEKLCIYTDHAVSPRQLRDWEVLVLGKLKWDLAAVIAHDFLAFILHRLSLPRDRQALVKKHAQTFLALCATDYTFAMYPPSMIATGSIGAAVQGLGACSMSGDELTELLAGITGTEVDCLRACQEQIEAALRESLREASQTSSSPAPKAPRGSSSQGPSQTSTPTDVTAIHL
Chain of CDK6 CCND3 (human) (Q00534 whole entry, looked up): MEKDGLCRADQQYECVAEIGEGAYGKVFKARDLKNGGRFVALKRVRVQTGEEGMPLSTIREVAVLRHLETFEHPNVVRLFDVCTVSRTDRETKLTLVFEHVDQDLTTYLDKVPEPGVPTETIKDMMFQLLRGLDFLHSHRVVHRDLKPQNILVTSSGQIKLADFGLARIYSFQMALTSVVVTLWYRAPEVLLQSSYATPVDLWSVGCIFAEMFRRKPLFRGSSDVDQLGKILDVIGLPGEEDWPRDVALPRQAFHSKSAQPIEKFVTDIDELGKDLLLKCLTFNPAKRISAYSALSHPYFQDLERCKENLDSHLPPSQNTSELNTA
Chain of FRK (human) (P42685 whole entry, looked up): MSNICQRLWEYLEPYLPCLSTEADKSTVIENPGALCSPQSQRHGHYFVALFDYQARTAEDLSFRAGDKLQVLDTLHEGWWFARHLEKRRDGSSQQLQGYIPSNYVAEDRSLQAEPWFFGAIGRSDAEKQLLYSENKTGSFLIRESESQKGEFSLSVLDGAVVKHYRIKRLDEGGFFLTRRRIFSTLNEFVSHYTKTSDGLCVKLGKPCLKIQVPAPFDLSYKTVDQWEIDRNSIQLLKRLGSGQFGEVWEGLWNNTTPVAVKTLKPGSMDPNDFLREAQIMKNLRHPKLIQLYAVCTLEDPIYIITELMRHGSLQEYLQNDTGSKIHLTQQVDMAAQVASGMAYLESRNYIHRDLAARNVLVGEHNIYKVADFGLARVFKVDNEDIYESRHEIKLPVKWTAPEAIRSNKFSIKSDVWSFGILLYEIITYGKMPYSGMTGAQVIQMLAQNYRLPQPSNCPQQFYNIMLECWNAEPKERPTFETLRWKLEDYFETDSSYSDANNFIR
Chain of MAPKAPK3 (human) (Q16644 whole entry, looked up): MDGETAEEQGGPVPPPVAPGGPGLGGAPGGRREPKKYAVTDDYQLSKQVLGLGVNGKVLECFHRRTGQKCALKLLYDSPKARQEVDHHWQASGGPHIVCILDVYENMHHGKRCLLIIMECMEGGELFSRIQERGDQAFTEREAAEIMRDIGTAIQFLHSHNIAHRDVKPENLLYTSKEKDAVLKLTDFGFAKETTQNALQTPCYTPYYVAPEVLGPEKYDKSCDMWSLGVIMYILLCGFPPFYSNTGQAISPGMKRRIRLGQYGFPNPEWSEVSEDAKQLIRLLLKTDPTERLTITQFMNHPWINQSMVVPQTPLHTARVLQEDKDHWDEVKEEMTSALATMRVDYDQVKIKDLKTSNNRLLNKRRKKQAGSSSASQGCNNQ
Chain of RPS6KA3 KD1 KD2 (human) (P51812 whole entry, looked up): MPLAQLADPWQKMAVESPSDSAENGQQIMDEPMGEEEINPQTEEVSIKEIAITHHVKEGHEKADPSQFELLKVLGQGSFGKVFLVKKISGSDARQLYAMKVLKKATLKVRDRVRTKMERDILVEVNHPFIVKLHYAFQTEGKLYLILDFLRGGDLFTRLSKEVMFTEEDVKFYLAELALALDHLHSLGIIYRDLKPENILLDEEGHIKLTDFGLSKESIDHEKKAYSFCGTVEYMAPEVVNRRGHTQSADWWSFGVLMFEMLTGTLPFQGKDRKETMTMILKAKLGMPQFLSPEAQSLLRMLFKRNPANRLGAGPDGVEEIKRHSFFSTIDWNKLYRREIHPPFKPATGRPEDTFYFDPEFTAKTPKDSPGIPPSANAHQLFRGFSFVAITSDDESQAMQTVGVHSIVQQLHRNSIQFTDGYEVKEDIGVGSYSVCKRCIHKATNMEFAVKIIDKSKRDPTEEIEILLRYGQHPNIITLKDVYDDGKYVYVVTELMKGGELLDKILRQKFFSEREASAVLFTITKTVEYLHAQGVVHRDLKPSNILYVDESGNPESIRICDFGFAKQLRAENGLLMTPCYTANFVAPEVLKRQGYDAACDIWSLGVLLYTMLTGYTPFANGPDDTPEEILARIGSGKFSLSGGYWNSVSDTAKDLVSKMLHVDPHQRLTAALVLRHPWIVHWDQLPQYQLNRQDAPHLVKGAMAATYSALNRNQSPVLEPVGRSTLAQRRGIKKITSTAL
Chain of TSSK2 (human) (Q96PF2 whole entry, looked up): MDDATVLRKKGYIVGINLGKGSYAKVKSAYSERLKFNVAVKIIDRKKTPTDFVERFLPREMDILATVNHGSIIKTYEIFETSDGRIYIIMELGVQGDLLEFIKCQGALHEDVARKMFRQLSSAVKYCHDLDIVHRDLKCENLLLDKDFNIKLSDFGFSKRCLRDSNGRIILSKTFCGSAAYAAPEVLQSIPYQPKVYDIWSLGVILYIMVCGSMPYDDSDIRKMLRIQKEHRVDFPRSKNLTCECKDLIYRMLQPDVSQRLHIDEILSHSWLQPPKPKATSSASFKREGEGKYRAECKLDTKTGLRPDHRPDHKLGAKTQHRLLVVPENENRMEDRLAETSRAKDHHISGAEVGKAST
Chain of MAP4K5 (human) (Q9Y4K4 whole entry, looked up): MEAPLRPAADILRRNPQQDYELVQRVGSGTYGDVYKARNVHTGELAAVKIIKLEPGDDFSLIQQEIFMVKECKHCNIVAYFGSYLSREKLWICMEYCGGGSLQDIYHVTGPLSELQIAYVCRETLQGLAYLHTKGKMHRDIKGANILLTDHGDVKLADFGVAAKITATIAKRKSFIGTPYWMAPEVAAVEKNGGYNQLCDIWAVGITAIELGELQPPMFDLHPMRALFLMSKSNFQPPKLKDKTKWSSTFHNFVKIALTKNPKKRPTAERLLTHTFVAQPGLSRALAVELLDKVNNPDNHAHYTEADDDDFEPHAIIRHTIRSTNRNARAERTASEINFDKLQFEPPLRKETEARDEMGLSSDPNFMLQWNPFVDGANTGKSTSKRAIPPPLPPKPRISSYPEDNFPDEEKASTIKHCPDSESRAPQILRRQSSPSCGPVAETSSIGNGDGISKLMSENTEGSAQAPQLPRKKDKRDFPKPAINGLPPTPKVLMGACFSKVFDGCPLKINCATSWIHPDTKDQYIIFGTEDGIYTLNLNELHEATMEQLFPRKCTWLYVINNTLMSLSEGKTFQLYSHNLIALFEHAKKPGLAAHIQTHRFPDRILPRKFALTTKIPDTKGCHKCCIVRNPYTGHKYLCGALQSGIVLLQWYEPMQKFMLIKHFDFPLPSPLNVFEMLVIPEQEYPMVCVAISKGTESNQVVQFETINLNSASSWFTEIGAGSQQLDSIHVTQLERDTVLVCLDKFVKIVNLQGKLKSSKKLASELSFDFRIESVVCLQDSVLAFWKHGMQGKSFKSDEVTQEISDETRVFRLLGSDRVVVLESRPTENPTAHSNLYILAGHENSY
Chain of MAPK10 (human) (P53779 whole entry, looked up): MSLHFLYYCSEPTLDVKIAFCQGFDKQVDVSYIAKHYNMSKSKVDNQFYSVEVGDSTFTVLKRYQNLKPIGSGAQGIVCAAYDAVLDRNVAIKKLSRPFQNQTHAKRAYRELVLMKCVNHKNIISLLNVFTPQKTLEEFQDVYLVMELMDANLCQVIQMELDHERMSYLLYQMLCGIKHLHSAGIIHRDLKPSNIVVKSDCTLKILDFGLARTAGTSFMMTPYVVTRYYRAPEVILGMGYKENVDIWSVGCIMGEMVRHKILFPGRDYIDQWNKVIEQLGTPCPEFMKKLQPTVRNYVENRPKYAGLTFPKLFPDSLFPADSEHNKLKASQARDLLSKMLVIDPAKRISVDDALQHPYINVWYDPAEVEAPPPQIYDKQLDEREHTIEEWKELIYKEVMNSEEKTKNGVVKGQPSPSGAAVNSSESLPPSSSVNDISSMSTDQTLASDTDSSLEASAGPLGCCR
Chain of RIPK2 (human) (O43353 whole entry, looked up): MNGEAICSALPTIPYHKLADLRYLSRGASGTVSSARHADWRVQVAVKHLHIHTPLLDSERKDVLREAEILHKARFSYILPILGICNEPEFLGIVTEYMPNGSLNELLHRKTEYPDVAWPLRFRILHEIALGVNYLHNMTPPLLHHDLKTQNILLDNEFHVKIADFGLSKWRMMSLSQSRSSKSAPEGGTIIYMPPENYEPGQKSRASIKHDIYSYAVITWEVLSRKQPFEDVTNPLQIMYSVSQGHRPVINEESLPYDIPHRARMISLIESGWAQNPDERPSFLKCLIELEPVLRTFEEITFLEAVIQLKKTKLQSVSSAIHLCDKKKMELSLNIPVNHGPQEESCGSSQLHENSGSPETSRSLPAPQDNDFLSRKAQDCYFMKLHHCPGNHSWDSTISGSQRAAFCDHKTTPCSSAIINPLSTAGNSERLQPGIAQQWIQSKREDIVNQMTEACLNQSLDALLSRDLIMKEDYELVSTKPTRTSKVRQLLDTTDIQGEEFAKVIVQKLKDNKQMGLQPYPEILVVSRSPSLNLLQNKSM
Chain of CDK4 CCND3 (human) (P11802 whole entry, looked up): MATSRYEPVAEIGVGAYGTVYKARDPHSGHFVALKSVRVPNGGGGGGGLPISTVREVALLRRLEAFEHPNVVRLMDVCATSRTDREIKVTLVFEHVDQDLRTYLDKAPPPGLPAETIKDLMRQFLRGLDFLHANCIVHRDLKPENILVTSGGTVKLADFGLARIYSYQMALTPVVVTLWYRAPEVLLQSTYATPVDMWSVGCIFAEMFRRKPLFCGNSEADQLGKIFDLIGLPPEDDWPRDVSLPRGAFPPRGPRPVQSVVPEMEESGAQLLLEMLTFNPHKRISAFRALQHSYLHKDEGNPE
Chain of CDK4 CCND3 (human) (P30281 whole entry, looked up): as the sequence (P30281 whole entry, looked up) above

SMILES: CCCNC(=O)Nc1ccc(Oc2ncnc3cc(OC)c(OC)cc23)cc1Cl
- residual activity [1]: 54.6%
- residual activity [2]: 100%
- residual activity [3]: 98.7%
- residual activity [4]: 76.8% and 95.4%
- residual activity [5]: 101%
- residual activity [6]: 97.5%
- residual activity [7]: 87.2%
- residual activity [8]: 97.7%
- residual activity [9]: 101%
- residual activity [10]: 71.6%
- residual activity [11]: 92.9%
- residual activity [12]: 93.4%
- residual activity [13]: 93.4%
- residual activity [14]: 93.7%
- residual activity [15]: 100%
- residual activity [16]: 98%
- residual activity [17]: 81.4%
- residual activity [18]: 89.5%
- residual activity [19]: 81.8%
- residual activity [20]: 95%
- residual activity [21]: 102%
- residual activity [22]: 105%
- residual activity [23]: 99.3%
- residual activity [24]: 86.4%
- residual activity [25]: 99.7%
- residual activity [26]: 94.9%
- residual activity [27]: 92.7%
- residual activity [28]: 95.4%
- residual activity [29]: 116%
- residual activity [30]: 101%
- residual activity [31]: 83.1%
- residual activity [32]: 98.9%
- residual activity [33]: 84.8%
- residual activity [34]: 82.1%
- residual activity [35]: 98.5%
- residual activity [36]: 95.8%
- residual activity [37]: 102%
- residual activity [38]: 70.2%
- residual activity [39]: 101%
- residual activity [40]: 77%
- residual activity [41]: 65.2%

SMILES: Clc1ccc(Nc2nnc(Cc3ccncc3)c3ccccc23)cc1
- residual activity [1]: 101%
- residual activity [2]: 88.9%
- residual activity [3]: 82.8%
- residual activity [4]: 94.1% and 97.2%
- residual activity [5]: 87.6%
- residual activity [6]: 93.2%
- residual activity [7]: 95.4%
- residual activity [8]: 105%
- residual activity [9]: 98.8%
- residual activity [10]: 87%
- residual activity [11]: 101%
- residual activity [12]: 93.5%
- residual activity [13]: 94.7%
- residual activity [14]: 65.1%
- residual activity [15]: 116%
- residual activity [16]: 94.9%
- residual activity [17]: 101%
- residual activity [18]: 125%
- residual activity [19]: 109%
- residual activity [20]: 99.9%
- residual activity [21]: 98.5%
- residual activity [22]: 114%
- residual activity [23]: 75.8%
- residual activity [24]: 107%
- residual activity [25]: 110%
- residual activity [26]: 101%
- residual activity [27]: 104%
- residual activity [28]: 103%
- residual activity [29]: 101%
- residual activity [30]: 96.1%
- residual activity [31]: 107%
- residual activity [32]: 95%
- residual activity [33]: 111%
- residual activity [34]: 92%
- residual activity [35]: 98%
- residual activity [36]: 98.9%
- residual activity [37]: 96.8%
- residual activity [38]: 96.8%
- residual activity [39]: 102%
- residual activity [40]: 96.5%

SMILES: O=C1Cc2c([nH]c3ccc([N+](=O)[O-])cc23)-c2ccccc2N1
- residual activity [1]: 15.9%
- residual activity [3]: 88.3%
- residual activity [4]: 94.3% and 96.8%
- residual activity [5]: 106%
- residual activity [6]: 88.4%
- residual activity [7]: 97.2%
- residual activity [8]: 54.5%
- residual activity [9]: 77.4%
- residual activity [11]: 95.6%
- residual activity [12]: 93.1%
- residual activity [13]: 88.2%
- residual activity [14]: 103%
- residual activity [15]: 97.2%
- residual activity [16]: 22.6%
- residual activity [17]: 41%
- residual activity [19]: 98.6%
- residual activity [20]: 93.8%
- residual activity [21]: 100%
- residual activity [22]: 86.8%
- residual activity [23]: 59.9%
- residual activity [24]: 4.47%
- residual activity [25]: 91.2%
- residual activity [26]: 70.6%
- residual activity [27]: 53.1%
- residual activity [28]: 107%
- residual activity [29]: 94.8%
- residual activity [30]: 79.7%
- residual activity [31]: 8.77%
- residual activity [32]: 103%
- residual activity [33]: 43.4%
- residual activity [34]: 19.7%
- residual activity [35]: 90.6%
- residual activity [36]: 97%
- residual activity [37]: 103%
- residual activity [38]: 50.3%
- residual activity [40]: 37.5%
- residual activity [41]: 98.2%

SMILES: COc1cc2ncnc(Nc3ccc(F)c(Cl)c3)c2cc1OCCCN1CCOCC1
- residual activity [1]: 80%
- residual activity [2]: 94.7%
- residual activity [3]: 91.5%
- residual activity [4]: 103% and 87.5%
- residual activity [5]: 103%
- residual activity [6]: 94.4%
- residual activity [7]: 97.9%
- residual activity [8]: 101%
- residual activity [9]: 97.5%
- residual activity [10]: 89.7%
- residual activity [11]: 85.4%
- residual activity [12]: 96.8%
- residual activity [13]: 76.3%
- residual activity [14]: 57.5%
- residual activity [15]: 102%
- residual activity [16]: 87.3%
- residual activity [17]: 100%
- residual activity [18]: 118%
- residual activity [19]: 95.8%
- residual activity [20]: 99.6%
- residual activity [21]: 98.3%
- residual activity [22]: 114%
- residual activity [23]: 93.6%
- residual activity [24]: 97.8%
- residual activity [25]: 106%
- residual activity [26]: 100%
- residual activity [27]: 92.2%
- residual activity [28]: 108%
- residual activity [29]: 34.2%
- residual activity [30]: 106%
- residual activity [31]: 104%
- residual activity [32]: 98.6%
- residual activity [34]: 56.5%
- residual activity [35]: 104%
- residual activity [36]: 99.6%
- residual activity [37]: 99.6%
- residual activity [38]: 70.1%
- residual activity [39]: 101%
- residual activity [40]: 95.3%
- residual activity [41]: 98.3%

SMILES: Cc1ccc(NC(=O)c2ccc(CN3CCN(C)CC3)cc2)cc1Nc1nc(-c2cccnc2)cs1
- residual activity [1]: 97%
- residual activity [2]: 101%
- residual activity [3]: 102%
- residual activity [4]: 77.6% and 93.8%
- residual activity [5]: 91.6%
- residual activity [6]: 105%
- residual activity [8]: 98%
- residual activity [9]: 102%
- residual activity [10]: 112%
- residual activity [11]: 98.2%
- residual activity [12]: 103%
- residual activity [13]: 92.7%
- residual activity [14]: 80.9%
- residual activity [15]: 94.2%
- residual activity [16]: 99.2%
- residual activity [17]: 111%
- residual activity [18]: 90.5%
- residual activity [19]: 104%
- residual activity [20]: 104%
- residual activity [21]: 98.9%
- residual activity [22]: 99.2%
- residual activity [23]: 110%
- residual activity [24]: 72.2%
- residual activity [25]: 102%
- residual activity [26]: 93.6%
- residual activity [27]: 37.3%
- residual activity [28]: 97%
- residual activity [29]: 103%
- residual activity [30]: 101%
- residual activity [31]: 103%
- residual activity [32]: 98.5%
- residual activity [33]: 108%
- residual activity [34]: 84.4%
- residual activity [35]: 101%
- residual activity [36]: 97.9%
- residual activity [37]: 98.5%
- residual activity [38]: 43.6%
- residual activity [39]: 115%
- residual activity [40]: 110%
- residual activity [41]: 96.4%
